Consider 15 compounds from patent publication US8426420B2, “Heterocyclic pyrazole-carboxamidesas P2Y12 antagonists” (Sanofi, priority 2007, dated 2013).

One test addresses human P2Y12 receptor (Homo sapiens, UniProt Q9H244). Briefly: Human P2Y12 recombinant cell membrane binding assay with 33P 2MeS-ADP. The conditions noted are these: competition against 33P 2MeS-ADP, membranes of CHO cells with recombinant human P2Y12 receptor. The gist of the method: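 Competition binding against radiolabeled 2MeS-ADP (1.61 nM as added) on membranes from recombinant human P2Y12 CHO cells, 20 min RT after 15 min compound preincubation, pH 7.4. Filtration then scintillation counting; compounds tested in triplicate from 10 μM final, five-fold dilutions, curve fit with plate-defined min/max.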

In test [1] the test system is human platelet rich plasma. Briefly: Inhibition of human platelet aggregation, "Born"-method using single cuvettes. The conditions noted are these: 0.1 h, ADP-induced aggregation, 6 minutes. Format: cell-based. On the procedure:
Inhibition of Human Platelet Aggregation
Alternatively to a binding assay which measures a compound's ability to bind to the P2Y12 receptor, the effect on cellular function was also determined. This ability of the compound was evaluated in two platelet aggregation assays: in 96-well plates and with the “Born”-method using single cuvettes.
Whole blood was collected from healthy volunteers using 20 ml syringes containing 2 ml of buffered Citrate. The anticoagulated whole blood was transferred into 15 ml polypropylene conical tubes (10 ml per tube). The tubes were centrifuged for 15 minutes at 340×g at RT without using the centrifuge brake. This procedure leads to a pellet of cellular components and a supernatant of platelet rich plasma (PRP). The PRP layer was collected from each tube and pooled for each donor. To avoid carry over of cellular components following centrifugation, approximately 5 ml of PRP was left in the tube. The platelet concentration was determined using a Coulter Counter.
The 15 ml tubes containing the pellet of cellular components were centrifuged again for 10 minutes at 1940×g. This pelleted out most particulate blood constituents remaining, leaving a layer of Platelet Poor Plasma (PPP). The PPP was collected for each donor. The PRP layer, previously set aside, was diluted with PPP to a final concentration of approximately 3×E8 platelets/ml with the PPP.
The human platelet aggregation assay is performed in single use cuvettes using the platelet aggregation profiler (PAP-4 or -8, Bio/Data corporation).
In the assay cuvette 4 μl of test compound at 100× final concentration in DMSO is mixed with 392 μl fresh PRP and incubated for 2 minutes at 37° C. with 1.200 rpm stirring. Following that incubation period, 4 μl of 250 μM ADP is added to the reaction mix. This addition of ADP is sufficient to induce aggregation in the absence of an inhibitor. After that aggregation is measured over 6 minutes at 37° C. with 1.200 rpm stirring. Results of the assay are expressed as % inhibition, and are calculated using maximum aggregation (Tmax) or area under curve (AUC) of the absorbance over 6 minutes.
The IC50 data of the above described platelet aggregation assay using human platelet rich plasma for exemplary compounds of the present invention are shown in table 3.

The test system of test [2] is human platelet rich plasma. Briefly: Inhibition of human platelet aggregation, 96-well assay. Format: cell-based. The conditions noted are these: Homo sapiens, Platelet, 20 min. The gist of the method: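 ADP-induced aggregation read as 650 nm absorbance every minute for 20 min at 37 °C, with shaking between reads. PRP (~3×E8 platelets/ml, diluted with PPP, ACD-A blood from healthy volunteers) was exposed to compound for 5 min before adding a 40 μM ADP stock (15 μl into 150 μl).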

Sequence of human P2Y12 receptor (Q9H244 whole entry): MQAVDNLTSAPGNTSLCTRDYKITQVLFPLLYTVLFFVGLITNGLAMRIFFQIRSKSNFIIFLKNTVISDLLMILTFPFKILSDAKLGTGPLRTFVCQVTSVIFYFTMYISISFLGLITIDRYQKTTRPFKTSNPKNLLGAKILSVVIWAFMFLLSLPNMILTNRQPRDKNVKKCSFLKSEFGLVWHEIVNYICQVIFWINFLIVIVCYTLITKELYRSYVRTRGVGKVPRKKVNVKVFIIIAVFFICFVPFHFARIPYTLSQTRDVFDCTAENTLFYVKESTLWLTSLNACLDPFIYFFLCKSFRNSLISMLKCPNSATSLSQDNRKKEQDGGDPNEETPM

On to `CCOC(=O)N1CCN(C(=O)[C@H](CC(=O)O)NC(=O)c2cc(OCC(=O)N3CCC[C@H]3C(=O)NCC3CC3)n(-c3ccccc3)n2)CC1` [Example 55, 4-{(S)-3-Carboxy-2-[(5-{2-[(S)-2-(cyclopropylmethyl-carbamoyl)-pyrrolidin-1-yl]-2-oxo-ethoxy}-1-phenyl-1H-pyrazole-3-carbonyl)-amino]-propionyl}-piperazine-1-carboxylic acid ethyl ester], for which the figures for the IC50 (at human P2Y12 receptor; in test [1]; in test [2]) were 70 nM, 60 nM and 20 nM, respectively.

Regarding `CCCCOC(=O)N1CCN(C(=O)[C@H](CCC(=O)O)NC(=O)c2cc(OCC(=O)N3CCC[C@H]3C(=O)NC3CC3)n(-c3ccccc3)n2)CC1` [Example 118, 4-[(S)-4-Carboxy-2-({5-[2-((S)-2-cyclopropylcarbamoyl-pyrrolidin-1-yl)-2-oxo-ethoxy]-1-phenyl-1H-pyrazole-3-carbonyl}-amino)-butyryl]-piperazine-1-carboxylic acid butyl ester], the IC50 – broadly, the point on the concentration scale where inhibition reaches its midpoint – at human P2Y12 receptor stood at 9 nM; in test [1], 25 nM; in test [2], 20 nM.

Regarding `CCOC(=O)N1CCN(C(=O)[C@H](CCC(=O)O)NC(=O)c2cc(O[C@H](C)C(=O)N3CCC[C@H]3C(=O)NC3CCC3)n(-c3ccccc3)n2)CC1` [Example 62, 4-[(S)-4-Carboxy-2-({5-[(R)-2-((S)-2-cyclobutylcarbamoyl-pyrrolidin-1-yl)-1-methyl-2-oxo-ethoxy]-1-phenyl-1H-pyrazole-3-carbonyl}-amino)-butyryl]-piperazine-1-carboxylic acid ethyl ester], the IC50 was 17 nM at human P2Y12 receptor, 58 nM in test [1] and 130 nM in test [2].

As for `CCCCOC(=O)N1CCN(C(=O)CNC(=O)c2cc(OCC(=O)N3CCC[C@H]3C(=O)NC3CCC3)n(-c3ccccc3)n2)CC1` [Example 182, 4-[2-({5-[2-((S)-2-Cyclobutylcarbamoyl-pyrrolidin-1-yl)-2-oxo-ethoxy]-1-phenyl-1H-pyrazole-3-carbonyl}-amino)-acetyl]-piperazine-1-carboxylic acid butyl ester], the results for the concentration for half-maximal inhibition (IC50) (at human P2Y12 receptor; in test [1]; in test [2]) were 20 nM, 46 nM and 30 nM, respectively.

Consider `CCCCOC(=O)N1CCN(C(=O)[C@H](CCC(=O)O)NC(=O)c2cc(OCC(=O)N3CCC[C@H]3C(=O)N(C)C3CCC3)n(-c3ccccc3)n2)CC1` [Example 124, 4-{(S)-4-Carboxy-2-[(5-{2-[(S)-2-(cyclobutyl-methyl-carbamoyl)-pyrrolidin-1-yl]-2-oxo-ethoxy}-1-phenyl-1H-pyrazole-3-carbonyl)-amino]-butyryl}-piperazine-1-carboxylic acid butyl ester], for which the figures for the IC50 (on human P2Y12 receptor; in test [1]) were 71 nM and 20 nM, respectively.

Take `CCOC(=O)N1CCN(C(=O)[C@H](CCC(=O)O)NC(=O)c2cc(O[C@H](C)C(=O)N3CCC[C@H]3C(=O)NCC(F)(F)F)n(-c3ccccc3)n2)CC1` [Example 65, 4-[(S)-4-Carboxy-2-({5-[(R)-2-((S)-2-(2,2,2-trifluoroethylcarbamoyl)-pyrrolidin-1-yl)-1-methyl-2-oxo-ethoxy]-1-phenyl-1H-pyrazole-3-carbonyl}-amino)-butyryl]-piperazine-1-carboxylic acid ethyl ester]: the IC50 at human P2Y12 receptor stood at 55 nM; in test [1], 120 nM.

As to `CCOC(=O)N1CCN(C(=O)[C@H](CCC(=O)O)NC(=O)c2cc(OCC(=O)N3CCC[C@H]3C(=O)NC(C)C)n(-c3ccccc3)n2)CC1` [Example 10, 4-{(S)-4-Carboxy-2-[(5-{2-[(S)-2-isopropylcarbamoyl-pyrrolidin-1-yl]-2-oxo-ethoxy}-1-phenyl-1H-pyrazole-3-carbonyl)-amino]-butyryl}-piperazine-1-carboxylic acid ethyl ester], the IC50 at human P2Y12 receptor stood at 146 nM; in test [1] it was 340 nM.

`CCOC(=O)N1CCN(C(=O)[C@H](CCC(=O)O)NC(=O)c2cc(OCC(=O)N3CCC[C@H]3C(=O)NCC(F)(F)F)n(-c3ccccc3)n2)CC1` [Example 2, 4-{(S)-4-Carboxy-2-[(5-{2-oxo-2-[(S)-2-(2,2,2-trifluoroethyl-carbamoyl)pyrrolidin-1-yl]-ethoxy}-1-phenyl-1H-pyrazole-3-carbonyl)-amino]-butyryl}-piperazine-1-carboxylic acid ethyl ester]: the half-inhibitory concentration (IC50) at human P2Y12 receptor came to 120 nM; in test [1], 11 nM.

For `CCOC(=O)N1CCN(C(=O)[C@H](CCC(=O)O)NC(=O)c2cc(O[C@H](C)C(=O)N3CCC[C@H]3C(=O)NCC3CC3)n(-c3ccccc3)n2)CC1` [Example 63, 4-[(S)-4-Carboxy-2-({5-[(R)-2-((S)-2-cyclopropylmethylcarbamoyl-pyrrolidin-1-yl)-1-methyl-2-oxo-ethoxy]-1-phenyl-1H-pyrazole-3-carbonyl}-amino)-butyryl]-piperazine-1-carboxylic acid ethyl ester], the IC50 at human P2Y12 receptor came to 41 nM; in test [1], 20 nM.

In the case of `CCCCOC(=O)N1CCN(C(=O)[C@H](CCCO)NC(=O)c2cc(OCC(=O)N3CCC[C@H]3C(=O)NC3CCC3)n(-c3ccccc3)n2)CC1` [Example 178, 4-[(S)-2-({5-[2-((S)-2-Cyclobutylcarbamoyl-pyrrolidin-1-yl)-2-oxo-ethoxy]-1-phenyl-1H-pyrazole-3-carbonyl}-amino)-5-hydroxy-pentanoyl]-piperazine-1-carboxylic acid butyl ester], the IC50 stood at 17 nM on human P2Y12 receptor and 70 nM in test [1].

As for `CCOC(=O)N1CCN(C(=O)[C@H](CCC(=O)O)NC(=O)c2cc(OCC(=O)N3CCC[C@H]3c3nc(C)no3)n(-c3ccccc3)n2)CC1` [Example 174, 4-{(S)-4-Carboxy-2-[(5-{2-[(S)-2-(3-methyl-[1,2,4]oxadiazol-5-yl)-pyrrolidin-1-yl]-2-oxo-ethoxy}-1-phenyl-1H-pyrazole-3-carbonyl)-amino]-butyryl}-piperazine-1-carboxylic acid ethyl ester], the half-inhibitory concentration (IC50) in test [1] is 2220 nM; in test [2] it was 760 nM.

As for `CCOC(=O)N1CCN(C(=O)[C@H](CCC(=O)O)NC(=O)c2cc(OCC(=O)N3CCC[C@H]3c3cc(C)no3)n(-c3ccccc3)n2)CC1` [Example 173, 4-{(S)-4-Carboxy-2-[(5-{2-[(S)-2-(3-methyl-isoxazol-5-yl)-pyrrolidin-1-yl]-2-oxo-ethoxy}-1-phenyl-1H-pyrazole-3-carbonyl)-amino]-butyryl}-piperazine-1-carboxylic acid ethyl ester], the IC50 in test [1] was 940 nM; in test [2], 860 nM.

Take `CCOC(=O)N1CCN(C(=O)[C@H](CCC(=O)O)NC(=O)c2cc(OCC(=O)N3CCC[C@H]3C(=O)NC3CCCC3)n(-c3ccccc3)n2)CC1` [Example 13, 4-{(S)-4-Carboxy-2-[(5-{2-[(S)-2-cyclopentylcarbamoyl-pyrrolidin-1-yl]-2-oxo-ethoxy}-1-phenyl-1H-pyrazole-3-carbonyl)-amino]-butyryl}-piperazine-1-carboxylic acid ethyl ester]: the IC50 amounted to 38 nM in test [1] and 10 nM in test [2].

For `O=C(NCC(=O)N1CCN(C(=O)OCCC(F)(F)F)CC1)c1cc(OCC(=O)N2CCC[C@H]2C(=O)NC2CCC2)n(-c2ccccc2)n1` [Example 256, 4-[2-({5-[2-((S)-2-Cyclobutylcarbamoyl-pyrrolidin-1-yl)-2-oxo-ethoxy]-1-phenyl-1H-pyrazole-3-carbonyl}-amino)-acetyl]-piperazine-1-carboxylic acid 3,3,3-trifluoro-propyl ester], the figures for the IC50 in test [1] and in test [2] were 190 nM and 130 nM, respectively.

For `CCCCOC(=O)N1CCN(C(=O)CNC(=O)c2cc(O[C@H](C)C(=O)N3CCC[C@H]3C(=O)NC3CCC3)n(-c3ccccc3)n2)CC1` [Example 269, 4-[2-({5-[(R)-2-((S)-2-Cyclobutylcarbamoyl-pyrrolidin-1-yl)-1-methyl-2-oxo-ethoxy]-1-phenyl-1H-pyrazole-3-carbonyl}-amino)-acetyl]-piperazine-1-carboxylic acid butyl ester], the IC50 on human P2Y12 receptor worked out at 3 nM; in test [1], 50 nM.
